Results: patent US10568819B2, “Skin enhancing compositions and methods” (Sytheon Limited, priority 2016, dated 2020)
Like-named read-outs stand apart in the source and are kept apart here.

Experiments:
[1] = system: human dermal fibroblasts; experiment: UVA-induced plasma membrane disruption (Mitochondrial ToxGlo Assay); assay type: cell-based; conditions: 24 hour Pre-incubation
Description: (§1) The study was conducted in accordance with the protocols of Berridge et al, (M V Berridge & A S Tan, Characterization of the cellular reduction of 3-(4,5-dimethylthiazol-2-yl)-2,5-diphenyltetrazolium bromide (MTT): subcellular localization, substrate dependence, and involvement of mitochondrial electron transport in MTT reduction, Arch. Biochem. Biophys. 303:474-482, 1993) and Voigt (W Voigt, Sulforhodamine B assay and chemosensitivity, Methods Mol Med, 110:39-48, 2005). Cellular metabolism is determined using the MTT assay to measure the activity of mitochondrial dehydrogenases, such as succinate dehydrogenase, which are implicated in the respiratory electron transport chain in mitochondria [M V Berridge & Tan Biochem Biophys, 303:474-482, 1993]. Additionally, the samples were subject to the Mitochondrial ToxGlo Assay (Promega Technical Manual, G8000 and G8001), which is a cell-based assay method that has been developed to quantify potential mitochondrial dysfunction as a result of xenobiotic exposure, using a sequential-addition, multiplexed chemistry.
(§2) Table 8 presents the result on the effect of UVA radiation on cell metabolism 3 hours after irradiation. As indicated, Compound 1 improves cell metabolism, even at a very low use concentration. Table 9 presents the effect of 24 hour pre-incubation on UVA-induced mitochondrial damage measured by ATP production in human dermal fibroblasts. […] Finally. Table 10 presents the effect of 24 hour pre-incubation on UVA-induced plasma membrane disruption in human dermal fibroblasts. As indicated, Compound 1 almost completely reversed plasma membrane disruption, again at a very low use concentration.

[2] = system: ITGB5; experiment: PCR array gene expression, ITGB5; assay type: cell-based
Source text: (§3) In light of the efficacy of the aryl alkanones ire addressing many of the molecular/biomolecular processes damaged by UV exposure, a study was undertaken to assess whether these compounds would also be effective in addressing symptoms associated with non-UV induced skin aging including chronological aging as well as disease conditions that likewise adversely affect skin processes. The studies conducted involves DNA microarray, PCR array, cell culture, enzyme inhibitory activity.

[3] = system: POT1; experiment: DNA microarray gene expression, POT1; assay type: cell-based
Source text: as §3

[4] = system: FMOD; experiment: DNA microarray gene expression, FMOD; assay type: cell-based
Source text: as §3

[5] = system: COL14A1; experiment: PCR array gene expression, COL14A1; assay type: cell-based
Source text: as §3

[6] = system: FBLN1; experiment: DNA microarray gene expression, FBLN1; assay type: cell-based
Source text: as §3

[7] = system: TIMP3; experiment: DNA microarray gene expression, TIMP3; assay type: cell-based
Source text: as §3

[8] = system: VMN; experiment: DNA microarray gene expression, VMN; assay type: cell-based
Source text: as §3

[9] = system: ITGA4; experiment: DNA microarray gene expression, ITGA4; assay type: cell-based
Source text: as §3

[10] = system: Melanocytes; experiment: UVA-induced delayed formation of CPDs (dCPDs) in melanocytes; assay type: cell-based; conditions: 25 μg/ml, UVA irradiation first then product added
Description: A second study was carried out, similar to the first, except that this time the analysis was in assessing the efficacy, if any, of the presently taught aryl alkanones in reducing UVA-induced delayed formation of CPDs (dCPDs).

[11] = target: MMP-12 (Homo sapiens, UniProt P39900); experiment: MMP-12 (Elastase) inhibition; assay type: biochemical; conditions: read-out: Inhibitory concentration (IC50), MMP-12
Description: The methodology for the study of MMP-12 activity was as follows: • A 0.1 g sample of Compound 1 was dissolved in 1 ml DMSO, then it was diluted 100× with 1.4% randomly methylated cyclodextrin in Iris buffer (50 mM Tris pH 7.5, 150 mM NaCl, 2 mM CaCl2, 5μ ZnSO4, 0.01% Brij-35) to make a stock solution. For the analysis, different concentrations of Compound 1 were used to determine the IC50. In the well: 0.2 mM substrate, 0.25 μg/ml enzyme, and sample were mixed and read according to the reference (TSA Thring et al. BMC Complementary and Alternate Medicine, 9, 27, 2009; https://doi.org/10.1186/1472-6882-9-27)

[12] = target: iNOS (Homo sapiens, UniProt P35228); experiment: Reduction of iNOS activity; assay type: biochemical
Source text: Accordingly, an investigation was undertaken to assess the efficacy of compounds according to the present teaching as compared to compounds that are closely structurally related thereto in inhibiting NO product.

[13] = system: mitochondrial dehydrogenases; experiment: MTT assay of cellular metabolism after UVA irradiation; assay type: cell-based; conditions: 3 hours after irradiation
Description: as §1, §2

[14] = system: VCAN; experiment: DNA microarray gene expression, VCAN; assay type: cell-based
Source text: as §3

[15] = system: COL1A1; experiment: DNA microarray gene expression, COL1A1; assay type: cell-based
Source text: as §3

[16] = system: ITGB3; experiment: PCR array gene expression, ITGB3; assay type: cell-based
Source text: as §3

[17] = system: COL14A1; experiment: DNA microarray gene expression, COL14A1; assay type: cell-based
Source text: as §3

[18] = system: Cell #; experiment: Cell number (Sulforhodamine B assay) after UVA irradiation; assay type: cell-based; conditions: 3 hours after irradiation
Description: as §1, §2

[19] = system: ITGA1; experiment: PCR array gene expression, ITGA1; assay type: cell-based
Source text: as §3

[20] = system: TIMP3; experiment: PCR array gene expression, TIMP3; assay type: cell-based
Source text: as §3

[21] = system: NOX; conditions: UVA, Fibroblasts
[22] = system: LAMA4; experiment: DNA microarray gene expression, LAMA4; assay type: cell-based
Source text: as §3

[23] = system: Fibroblasts; experiment: UVA- and UVB-induced formation of immediate CPDs (iCPDs) in fibroblasts; assay type: cell-based; conditions: UVA, 25 μg/ml
Description: Given the significance of CPDs in skin aging and damage, a study was undertaken to determine whether compounds of the present invention have the ability to directly protect the genome of skin cells from the mutagenic effect of UV light as evidenced by CPDs inhibition. The study was conducted in accordance with the method described by Mitchell et. al. [Mitchell, D L, The relative cytotoxicity of (6-4) photoproducts and cyclobutane dimers in mammalian cells. Photochem Photobiol, 48(1):51-57, 1988)] pursuant to which UVA- and UVB-induced formation of immediate CPDs (iCPDs) were determined.

[24] = system: COL11A1; experiment: DNA microarray gene expression, COL11A1; assay type: cell-based
Source text: as §3

Sequence of iNOS (P35228 whole entry, species assumed): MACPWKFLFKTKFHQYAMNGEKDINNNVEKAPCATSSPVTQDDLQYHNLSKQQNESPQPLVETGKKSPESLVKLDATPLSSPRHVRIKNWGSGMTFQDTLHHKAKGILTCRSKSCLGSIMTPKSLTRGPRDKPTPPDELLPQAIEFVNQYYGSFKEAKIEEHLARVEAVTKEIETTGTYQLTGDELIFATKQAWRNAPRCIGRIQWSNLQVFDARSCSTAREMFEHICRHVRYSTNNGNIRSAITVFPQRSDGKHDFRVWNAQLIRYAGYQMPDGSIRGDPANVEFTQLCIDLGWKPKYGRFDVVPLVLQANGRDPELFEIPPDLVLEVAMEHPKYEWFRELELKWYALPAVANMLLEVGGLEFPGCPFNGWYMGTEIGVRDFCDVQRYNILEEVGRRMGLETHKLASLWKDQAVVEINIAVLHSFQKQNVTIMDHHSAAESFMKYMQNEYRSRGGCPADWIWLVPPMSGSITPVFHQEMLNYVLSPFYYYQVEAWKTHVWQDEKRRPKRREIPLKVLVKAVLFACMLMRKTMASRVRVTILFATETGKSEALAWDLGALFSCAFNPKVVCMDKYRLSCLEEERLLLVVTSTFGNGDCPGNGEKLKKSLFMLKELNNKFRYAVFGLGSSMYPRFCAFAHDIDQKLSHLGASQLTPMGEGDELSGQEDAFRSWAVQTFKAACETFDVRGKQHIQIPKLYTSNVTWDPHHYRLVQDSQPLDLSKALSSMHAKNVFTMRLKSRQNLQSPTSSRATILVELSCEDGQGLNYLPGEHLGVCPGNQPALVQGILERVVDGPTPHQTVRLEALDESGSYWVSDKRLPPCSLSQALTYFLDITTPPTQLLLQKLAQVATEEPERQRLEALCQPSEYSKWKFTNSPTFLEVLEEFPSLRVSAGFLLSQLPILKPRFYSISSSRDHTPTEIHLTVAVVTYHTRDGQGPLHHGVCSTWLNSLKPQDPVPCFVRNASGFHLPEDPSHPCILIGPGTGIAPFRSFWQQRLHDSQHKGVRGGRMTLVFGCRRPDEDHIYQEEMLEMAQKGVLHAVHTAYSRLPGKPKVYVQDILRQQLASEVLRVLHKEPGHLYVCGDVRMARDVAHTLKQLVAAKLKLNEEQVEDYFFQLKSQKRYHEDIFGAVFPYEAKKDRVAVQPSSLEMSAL
Sequence of MMP-12 (P39900 106-470): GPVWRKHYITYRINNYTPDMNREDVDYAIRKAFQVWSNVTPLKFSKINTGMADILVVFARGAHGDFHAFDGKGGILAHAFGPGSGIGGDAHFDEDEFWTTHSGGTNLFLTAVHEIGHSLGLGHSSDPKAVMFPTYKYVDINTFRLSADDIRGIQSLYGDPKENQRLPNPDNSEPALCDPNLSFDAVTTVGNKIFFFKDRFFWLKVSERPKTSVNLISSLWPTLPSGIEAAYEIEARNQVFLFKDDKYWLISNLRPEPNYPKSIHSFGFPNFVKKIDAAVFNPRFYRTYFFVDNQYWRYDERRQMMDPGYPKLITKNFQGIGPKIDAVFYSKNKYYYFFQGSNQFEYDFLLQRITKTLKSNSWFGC

For COc1cc(CC(C(C)=O)C(C)=O)ccc1O [Compound 1, Acetyl Zingerone], the “Plasma membrane disruption-related fluorescence (% Control)” value ([1]; 6.25 ug/ml) was 125 % Control, the “Plasma membrane disruption-related fluorescence (% Control)” value ([1]; 12.5 ug/ml) was 130 % Control and the “Plasma membrane disruption-related fluorescence (% Control)” value ([1]; 25 ug/ml) was 117 % Control. For the same molecule, the “PCR array, ITGB5 gene expression” value [2] was “+1.7”, the “Microarray, POT1 gene expression” value [3] was “+2.9” and the “Microarray, FMOD gene expression” value [4] was “+1.6”. The “PCR array, COL14A1 gene expression” value [5] was “+2.1”, the “Microarray, FBLN1 gene expression” value [6] was “+1.9” and the “Microarray, TIMP3 gene expression” value [7] was “+5.1”. The “Microarray, VMN gene expression” value [8] was “+1.7”, the “Microarray, ITGA4 gene expression” value [9] was “+1.6” and the “UVA/% Reduction in dCPDs vs. control, 1 hr.” value ([10]; 1 hr.) was 1 hr.: ↓70%. For the same molecule, the “UVA/% Reduction in dCPDs vs. control, 2 hr.” value ([10]; 2 hr.) was 2 hr.: ↓25%, the “UVA/% Reduction in dCPDs vs. control, 4 hr.” value ([10]; 4 hr.) was 4 hr.: ~0% and the IC50 [11] was 1060 µM. For the same molecule, the IC50 [12] was 194 µM, the “Cell Metabolism Standardized to cell # (% Control)” value ([13]; 0.5 μg/ml) was 123 % Control and the “MTT (% Control)” value ([13]; 0.5 μg/ml) was 122 % Control. For the same molecule, the “Cell Metabolism Standardized to cell # (% Control)” value ([13]; 2 μg/ml) was 136 % Control, the “MTT (% Control)” value ([13]; 2 μg/ml) was 137 % Control and the “Cell Metabolism Standardized to cell # (% Control)” value ([13]; 5 μg/ml) was 174 % Control. The “MTT (% Control)” value ([13]; 5 μg/ml) was 164 % Control, the “Microarray, VCAN gene expression” value [14] was “+1.7” and the “Microarray, COL1A1 gene expression” value [15] was “+1.6”. The “PCR array, ITGB3 gene expression” value [16] was “+2.0”, the “Microarray, COL14A1 gene expression” value [17] was “+4.3” and the “Cell # (% Control)” value ([18]; 0.5 μg/ml) was 99 % Control. The “Cell # (% Control)” value ([18]; 2 μg/ml) was 101 % Control, the “Cell # (% Control)” value ([18]; 5 μg/ml) was 95 % Control and the “PCR array, ITGA1 gene expression” value [19] was “+2.2”. The “PCR array, TIMP3 gene expression” value [20] was “+2.4”, the “reduction of NOX activity” value ([21]; 25 μg/ml) was −27% and the “reduction of NOX activity” value ([21]; 50 μg/ml) was −33%. The “Microarray, LAMA4 gene expression” value [22] was “+1.7”, the “UVA/% Reduction in iCPDs vs. Control” value [23] was 45% and the “Microarray, COL11A1 gene expression” value [24] was “+1.6”.
